From article PMC8712301, “Novel CYP11B-ligand [^123/131I]IMAZA as promising theranostic tool for adrenocortical tumors: comprehensive preclinical characterization and first clinical experience” (European Journal of Nuclear Medicine and Molecular Imaging, 2021)
One block for each molecule: values may come before it.

Experiments:
[1] = test system: metastatic ACC; assay: Dosimetry and endoradiotherapy with [131I]IMAZA in a patient with metastatic ACC; assay type: in vivo, human
Text: Patient #1 had experienced disease progression with a more than fourfold increase in their dominant lesions within only 4 months after a phase of disease stabilization after standard treatment with mitotane and eight courses of combination chemotherapy with etoposide, doxorubicin, and cisplatin. They received therapeutic doses with 28.2 GBq [^131I]IMAZA 1 month and with 30.5 GBq [^131I]IMAZA 7 months after the evaluation with [^123I]IMAZA. Prior to the first treatment, the absorbed dose to the blood was measured with a tracer activity of 72 MBq [^131I]IMAZA as a surrogate for the exposure of the dose-limiting organ, the red bone marrow. The absorbed dose to the blood was estimated from assessments of the activity kinetics in total body and blood up to 48 h when the mean activity concentrations had dropped to 5% of the values at 5 min after the administration in the total body and to 1% in the blood. During therapy, the total body activity retention was measured with a survey meter in the ceiling over the patient’s bed. Gamma camera whole body scans accompanied by blood sampling were acquired starting 4 days post-administration after the first and 2 days after the second therapy until dismissal. SPECT/CT imaging was performed after 4 and 5 days, respectively.
Tumor evaluation was performed by [^18F]FDG PET/CT at baseline and 2, 5, 8, 11, 14, and 21 months after administration of the first treatment dose. Subsequently, the patient declined further follow-up imaging or additional therapeutic interventions.

[2] = test system: advanced ACC; assay: Diagnostic imaging and biokinetics with [123I]IMTO and [123I]IMAZA in patients with advanced ACC; assay type: in vivo, human; set-up: AUC (time integral of the uptake function): concentration or dose not given beside the values
Procedure: Three patients (#1, #2, and #3) were investigated by [^123I]IMAZA (administered doses, 117, 163, and 182 MBq, respectively) and subsequently by [^123I]IMTO (176, 169, and 146 MBq, respectively). The time interval between the imaging studies was at least 5 days. Scintigraphic imaging was performed using a Siemens Symbia dual-head gamma camera equipped with medium-energy parallel-hole collimators. Activity concentration was measured in whole blood samples drawn at 2 min, 5 min, 15 min, 1 h, 2.5 h, 5 h, and 23 h after the administration. Plasma activity was analyzed in patient #1.

[3] = test system: adrenal gland; assay: Biodistribution in male CD-1 mice; assay type: in vivo; details: for Uptake in the adrenals: i.v. 0.1 MBq
Procedure: Six- to 8-week old male CD-1 mice received 0.1 MBq [^125I]IMTO [17] or the ^125I-labeled IMTO-analogues as intravenous injection in the tail vein. At predefined time points, mice were sacrificed (min. n = 5 per time point). Blood and urine were collected, and several organs were excised and weighed, and tracer uptake was determined by measurement in a γ-counter.
Fig. 4 Biodistribution of [^125I]IMTO and the new compounds [^125I]IMAZA, [^125I]3, and [^125I]4 in male CD-1 mice. Mice were injected i.v. with 0.1 MBq of respective compounds. Ex vivo organ dosimetry was performed at predefined time points 15 min, 30 min, 120 min, and 240 min after tracer injection. Results are expressed as percentage of injected dose per gram organ (%ID/g). Exact numbers on uptake in the adrenal as %ID/g for the compounds are given in the supplemental data

[4] = test system: NCI-H295 cells; assay: Cell uptake of 125I-labeled tracers in NCI-H295 cells, with and without etomidate; assay type: cell-based, human; set-up: Intracellular uptake with co-incubation of etomidate: dose or concentration left out as unconfirmed
Procedure: (§1) NCI-H295 cells (n = 250,000 per vial) were incubated with 0.1 MBq of the respective ^125I-labeled tracer at 37 °C, 5% CO2. For the blocking experiment, the cells were co-incubated with etomidate. Aliquots were taken and immediately placed into a 4 °C ice bath. After 5 min, the solution was centrifuged and rinsed twice with PBS/0.5% Tween 80, and the collected rinse solution was measured in a gamma counter. Assays were performed in triplicates. The intracellular distribution of the respective ^125I-labeled inhibitors and the specific binding to mitochondrial membranes were verified using a commercially available kit (Qiagen Qproteome Mitochondria isolation).
Fig. 3 a In vitro uptake kinetics of [^125I]IMTO, [^125I]IMAZA, [^125I]3, and [^125I]4 in NCI-H295 cells. b Cellular uptake of [^125I]IMTO, [^125I]IMAZA, [^125I]3, and [^125I]4 in NCI-H295 cells with and without co-incubation with etomidate. Cells […] (n = 3). c Cellular subfractionation of NCIH295 cells exposed to 0.1 MBq [^125I]IMTO, [^125I]IMAZA, [^125I]3, and [^125I]4 for 30 min at 37 °C. Distribution of the tracer compounds among the respective cellular subfractions

[5] = test system: NCI-H295 cells; assay: Cellular subfractionation of NCI-H295 cells exposed to 125I-labeled tracers; assay type: cell-based, human
Procedure: as §1
Fig. 3 a In vitro uptake kinetics of [^125I]IMTO, [^125I]IMAZA, [^125I]3, and [^125I]4 in NCI-H295 cells. b Cellular uptake of [^125I]IMTO, [^125I]IMAZA, [^125I]3, and [^125I]4 in NCI-H295 cells with and without co-incubation with etomidate. Cells were incubated with 0.1 MBq of the respective compounds and co-incubated with (0.1 µM, 10 µM, 100 µM) etomidate to monitor the specific uptake (n = 3). c Cellular subfractionation of NCIH295 cells exposed to 0.1 MBq [^125I]IMTO, [^125I]IMAZA, [^125I]3, and [^125I]4 for 30 min at 37 °C. Distribution of the tracer compounds among the respective cellular subfractions

[6] = Metabolic inactivation by human liver microsomes in vitro (radio-HPLC); assay type: in vitro ADME; details: human liver microsomes, radio-HPLC
Procedure: Metabolic degradation was determined by co-incubation of the tracers with human liver microsomes (Sigma, M0317). Experiments were conducted in triplicates. Incubation mixtures consisted of liver microsomes (0.2 mg/ml), the respective ^125I-labeled compound (0.1 MBq), MgCl2 (3.3 mM), and NADPH (1.3 mM) in a total volume of 0.6 ml K3PO4 puffer (25 mM, pH 7.2). The reaction was started with the addition of NADPH and incubated at 37 °C. At predefined time points, aliquots were removed, and the reaction was terminated by adding 160 µL ice-cold methanol. After centrifugation (5000 × g, 4 °C for 4 min), the supernatant was analyzed by radio-HPLC (see experimental details and Supplementary Fig. 1 in Supplement).

[7] = test system: human adrenocortical and non-adrenocortical tissue cryosections; assay: Autoradiographic binding to human tissue cryosections
Procedure: Human tissues were quick frozen in liquid nitrogen to block further biological processes including protein degradation and stored at –80 °C. Frozen samples from adrenocortical carcinoma (ACC; n = 3), aldosterone-producing adenoma (APA; n = 2), and cortisol-producing adenoma (CPA; n = 2), normal adrenal, kidney, and liver were sectioned into 20-µm-thick tissue slices, thaw-mounted onto Superfrost slides (PAP PEN, Zymed® Laboratories) and stored at –80 °C until processing. For the experimental set up, the tissue slices were pre-incubated for 5 min at room temperature with buffer solution (pH 7.4, 50 mM Tris). Afterwards, the slices were directly incubated with TRIS HCl buffer solution containing 2% BSA. After 1-h blocking, slides were treated with 0.1 MBq of the different compounds. As controls, slides were incubated with 0.1 MBq of the compounds in 10 µM of the non-radioactive compound to assess binding specificity. In the following, slides were washed twice with 50 mM Tris HCl buffer solution (pH 7.4). For exposure, samples were placed on Phosphor Imager plates for 30 min in dedicated lead-shielded cassettes. Autoradiographic images were analyzed with a CR35BIO Image plate scanner, and data analysis was performed with Amide software version 0.9.0.
Fig. 5 Ex vivo imaging of normal adrenal gland, adrenocortical tumors, and control tissue (kidney, liver). Autoradiographic visualization of [^125I]IMTO and [^125I]IMAZA accumulation in the normal adrenal gland, in adrenocortical tumors (ACC, APA, CPA), kidney, and liver as control tissue (sections with 20 µm slice thickness) (representative example). […] The red circles show the position of the organs that are not shown in the imaging. A = 0.1 MBq tracer, B = 0.1 MBq tracer plus non-radioactive 10 µM inhibitor

[8] = patient #1, pre-therapeutic kinetics assessment with [131I]IMAZA
[9] = three patients with advanced ACC
[10] = tumor lesion: patient #1, lesion #1
[11] = tumor lesion: patient #1, lesion #2
[12] = tumor lesion: patient #2, lesion #1
[13] = tumor lesion: patient #3, lesion #1
[14] = tumor lesion: patient #3, lesion #2

SMILES: C[C@H](c1ccc([131I])cc1)n1cncc1C(=O)N1CCC1 [[^131I]IMAZA]
- Long-term disease stabilization (progression-free survival) ([1]; patient #1, after first treatment): 21 months
- Survival (overall survival) ([1]; patient #1, after initial endoradiotherapy): 30 months
- Absorbed dose for both the liver and the kidney ([1]; patient #1, estimated): below 0.2 Gy/GBq
- Absorbed dose to the blood ([1]; patient #1, first therapy with 28.2 GBq): 1.1 Gy
- Activity giving an absorbed dose to the blood of 2 Gy ([1]; patient #1, pre-therapeutic kinetics assessment): 63 GBq
- Absorbed dose to the blood [1, 8]: 0.032 Gy/GBq
- Residence time in the whole blood [1, 8]: 0.17 h per liter of whole blood
- Residence time in the total body ([1]; patient #1, pre-therapeutic kinetics assessment with tracer activity): 10.9 h
- Mean blood absorbed dose ([2]; kinetics recalculated for 131I from 123I diagnostics in patients): 0.03 Gy/GBq

SMILES: COC(=O)c1cncn1C(C)c1ccc([125I])cc1 (stereo not drawn) [[^125I]IMTO, reference compound]
- Uptake in the adrenals ([3]; male CD-1 mice, 15 min): 491.2 ± 170.3 %ID/g
- Uptake in the adrenals ([3]; male CD-1 mice, 30 min): 321.3 ± 170.6 %ID/g
- Uptake in the adrenals ([3]; male CD-1 mice, 120 min): 80.5 ± 43.7 %ID/g
- Uptake in the adrenals ([3]; male CD-1 mice, 240 min): 27.4 ± 25.9 %ID/g
- Intracellular uptake with co-incubation of etomidate ([4]; NCI-H295 cells): 28.2%
- Intracellular uptake in NCI-H295 cells ([4]; after 30 min, 0.1 MBq tracer, 37 °C): 36.4%
- Accumulation in the cytosolic fraction ([5]; 0.1 MBq, 30 min at 37 °C): 7%
- Accumulation in the mitochondrial subfraction ([5]; 0.1 MBq, 30 min at 37 °C): 59.4%
- Accumulation in the nuclei, cell debris subfraction ([5]; 0.1 MBq, 30 min at 37 °C): 33.6%

- AUC (time integral of the uptake function) ([2]; median of five tumor lesions): 0.0024 h/g
- effective half-live ([2]; median of five tumor lesions): 11.0 h
- uptake ([2]; median of five tumor lesions): 0.011 %/g
- Activity concentration in plasma, times higher than in whole blood ([2]; patient #1, hematocrit 35%): 1.16 times
- Residence time per liter of whole blood, times higher than for [123I]IMAZA [2, 9]: 3.6 ± 1.5 times
- Total body residence time, times higher than for [123I]IMAZA [2, 9]: 2.2 ± 0.2 times
- AUC (time integral of the uptake function) [2, 10]: 0.0031 h/g
- effective half-live [2, 10]: 11.2 h
- uptake ([2]; tumor lesion: patient #1, lesion #1, SPECT/CT, normalised to administered activity): 0.015 %/g
- AUC (time integral of the uptake function) [2, 11]: 0.0024 h/g
- effective half-live [2, 11]: 11.0 h
- uptake ([2]; tumor lesion: patient #1, lesion #2, SPECT/CT): 0.011 %/g
- AUC (time integral of the uptake function) [2, 12]: 0.0016 h/g
- effective half-live [2, 12]: 12.4 h
- uptake ([2]; tumor lesion: patient #2, lesion #1, SPECT/CT): 0.006 %/g
- AUC (time integral of the uptake function) [2, 13]: 0.0017 h/g
- effective half-live [2, 13]: 8.0 h
- uptake ([2]; tumor lesion: patient #3, lesion #1, SPECT/CT): 0.010 %/g
- AUC (time integral of the uptake function) [2, 14]: 0.0056 h/g
- effective half-live [2, 14]: 10.1 h
- uptake ([2]; tumor lesion: patient #3, lesion #2, SPECT/CT): 0.027 %/g
SMILES: COC(=O)c1cncn1[C@H](C)c1ccc([123I])cc1 [[^123I]IMTO, [^123I]iodometomidate]

SMILES: C[C@H](c1ccc([125I])cc1)n1cncc1C(=O)N1CCC1 [[^125I]IMAZA]
- Uptake in the non-target organs ([3]; male CD-1 mice): extremely low uptake values
- Uptake in the adrenals ([3]; male CD-1 mice, 15 min): 710.9 ± 210.5 %ID/g
- Uptake in the adrenals ([3]; male CD-1 mice, 30 min): 720.4 ± 169.7 %ID/g
- Uptake in the adrenals ([3]; male CD-1 mice, 120 min): 395.7 ± 92.7 %ID/g
- Uptake in the adrenals ([3]; male CD-1 mice, 240 min): 275.4 ± 124.1 %ID/g
- Uptake at the latest time point, times higher compared to [125I]IMTO ([3]; mice): 10 times
- Tracer uptake and target to background ratios compared with [125I]IMTO ([3]; mice biodistribution): higher tracer uptake with better target to background ratios
- Metabolic stability compared with [125I]IMTO [6]: more than threefold longer half-life
- Intracellular uptake with co-incubation of etomidate ([4]; NCI-H295 cells): 8.6%
- Uptake with co-incubation of etomidate ([4]; NCI-H295 cells, highest concentration 100 µM etomidate): almost completely blocked
- Intracellular uptake in NCI-H295 cells compared with [125I]IMTO ([4]; at 30 min): highest uptake
- Subcellular distribution compared with [125I]IMTO ([5]; 30 min): similar
- Autoradiographic signal compared with [125I]IMTO ([7]; human adrenocortical tissue): distinctively stronger
- Binding to control tissue (liver, kidney) ([7]; human liver n = 2, kidney n = 1): no binding was detected
- Binding to ACC, APA, and CPA tissue ([7]; human tissue sections 20 µm, 0.1 MBq tracer, ± 10 µM non-radioactive compound): very strong and specific binding
